Measurements reported in patent US12024584B2, “Methods and compositions for polyurethane dispersions using caprolactam-derived solvents” (AdvanSix Resins & Chemicals LLC, priority 2017, dated 2024).
Like-named read-outs stand apart in the source and are kept apart here.

What was measured:
[1] = Gloss of pigmented and complete PUDs (ISO 2813); format: physicochemical
From the text: (§1) Tests were first performed to determine the coalescing agent level for pigmented and complete PUD formulations in order to achieve the optimum film formation. Complete paints were mixed with 0.7 wt. %, 1.5 wt. %, 3.0 wt. % and 5.0 wt. % of coalescing agents and applied on tin plated steel at a wet film thickness of around 250 μm, where the weight percentage was based on the pure polyurethane dispersion resins. […] Based on the observations, 3 wt. % dosage of coalescing agent was selected. Complete PUD formulations with pigments, fillers and other additives were prepared as per Table 5, and used to test and determine the coalescing properties of the caprolactam-derived solvents and other known coalescing agents.
(§2) Gloss measurements serve as an indicator of the paints surface quality. Gloss and color measurements were determined according to the ISO 2813 standard and the ISO 7724-2 standard (SCI-D65/10°), respectively.

[2] = Minimum film forming temperature, non-pigmented resin + coalescing agent; format: physicochemical; settings: resin with 5 wt. % coalescing agent, film thickness 350 μm
[3] = Scrub resistance of pigmented and complete PUDs (ISO 11998); format: physicochemical; settings: for Wt. Loss: 200 wet-scrub cycles; for Loss of thickness after 200 wet-scrub cycles: calculated from weight loss
From the text: as §1
Scrub resistance was tested according the ISO 11998 “Paints and Varnishes—Determination of Wet-Scrub Resistance and Cleanability of Coatings” standard. In this testing method, the paint was applied on a test panel (Leneta sheet) using a film applicator at the specific gap clearance. After drying and conditioning for four weeks at room temperature the coated panel was weighed and subject to 200 wet-scrub cycles in a scrub resistance machine. The panel was then washed, dried and weighed to determine the loss from which the mean loss in film thickness was calculated. […] For instance, N-methyl caprolactam (NM CPL), N-ethyl caprolactam (NE CPL), and blends thereof in the ratios of 1:2 and 1:1, all had less loss of thickness (2.035 μm, 1.797 μm, 1.39 μm, and 1.64 μm, respectively) as compared to NMP (2.090 μm) and NBP (2.213 μm).

[4] = Freeze and thaw stability (ASTM D2243-95); format: physicochemical; settings: for freeze-thaw stability: viscosity change (thickening of the paint): cycles of 16 hours at −20° C. and 8 hours at room temperature
Procedure: Water-based emulsions and dispersions are susceptible to irreversible coagulation by freezing. Freeze and thaw stability was tested according the ASTM D2243-95 standard.
For these examples, pigmented PUD paints were subject to freeze-thaw cycles of 16 hours at −20° C. and 8 hours at room temperature and subsequently subject to visible observations. The paints were then applied on a tin plated steel plate at a thickness of approximately 200 μm for observing film properties.
In addition, the freeze-thaw stability was best for caprolactam-derived coalescing agents (NM CPL) and the blends even after subject to five cycles (see FIG. 9). In particular, the paints were visually observed after each cycle to see if there was any viscosity change, i.e., thickening of the paint. Then, the dry films of the coatings were observed visually.

[5] = Persoz hardness of pigmented and complete PUDs; format: physicochemical; settings: pigmented
From the text: as §1
Persoz hardness measurements were performed on pigmented paints that were applied on tin plated steel using a doctor blade applicator at a dry film thickness (DFT) around 50 μm according to the ISO 1522 standard. […] For instance, the 28 day hardness for N-ethyl caprolactam (NE CPL) was approximately 104.6±0.5, while the 28 day hardness for NMP was approximately 108.8±2.4, and the 28 day hardness for ester alcohol and N-methyl caprolactam (NM CPL) were approximately 124.8±1 and 126.0±1, respectively, while the 28 day hardness for NBP was approximately 135.8±5.

Open time (ASTM D7488) = format: physicochemical; settings: ASTM D7488, 23±2° C., 50±5% RH, wet film 200 μm
From the text: as §1
Open times were determined according to the ASTM D7488 “Test Method for Open Time of Latex” standard and the tests were performed under controlled temperature and humidity (23±2° C. and 50±5% RH). In general, the paints were applied at a wet film thickness of 200 μm on contrasting sealed charts by means of a doctor blade applicator, and “X” marks are made immediately with the wide curved end of a wooden paint brush. After a determined time internal, the brush was dipped into the paint to be tested and brushing of the X-marks was started in perpendicular direction to the initial drawdown using 10 strokes back and forth to work the paint under test into the drawdown area. This procedure is repeated after several time intervals. After their complete drying (1 week), the painted panels are observed by two different observers and the time for which the “X” marks to become visible is considered as the open time.

[6] = Color of pigmented and complete PUDs (ISO 7724-2); format: physicochemical
From the text: as §1, §2

[7] = Drying time (ASTM D1640 / ASTM D5895); format: physicochemical; settings: 200 μm humid film; blends by ASTM D1640, single solvents by ASTM D5895
From the text: as §1
The drying times for the pigmented PUD formulations were determined according to the ASTM D1640 “Standard Test Methods for Drying, Curing, or Film Formation of Organic Coatings” standard or the ASTM D5895 “Standard Test Methods for Evaluating Drying or Curing During Film Formation of Organic Coatings Using Mechanical Recorders” standard. Four stages of drying can be identified depending on the trace left by the needle on the paint surface: Stage 1—Set-to-Touch time, Stage 2—Tack-Free time, Stage 3—Dry-Hard time, and Stage IV—Dry trough time. However, Stage IV is often hard to detect.
In general, the paints were applied at a humid film thickness of 200 μm by means of a bar coater on a Leneta sheet and the needle rate was set at 60 cm/hr.
For the present examples, the drying times for the 2:1 A:B, 1:1 A:B, and 1:2 A:B solvents were determined using the ASTM D1640 standard, and the drying times for NM CPL, NE CPL, NMP, NBP, ester amide, and ester alcohol were determined using the ASTM D5895 standard.

[8] = MFFT of pigmented and complete PUDs; format: physicochemical; settings: pigmented and complete PUD, 3 wt. % coalescing agent
From the text: as §1, with “agents. The standard test for determining this temperature involves using a MFFT-BAR, as specified by standards ASTM D 2354 and ISO 2115. In general, the MFFT of a paint or coating is reduced temporarily by the use of coalescing agents.” for “agents.”

[9] = Solubility of DMPA in solvents
Procedure: Solubility was tested between the various solvents to determine their applicability in the PUD manufacturing processes. Solubility is the amount of a substance (coalescing agent) that dissolves in a unit volume of a liquid substance (solvent) to form a saturated solution under specified conditions of temperature and pressure. For the examples, amounts of […] (DMPA) were dissolved in each solvent.

[10] = Viscosity and storage stability of pigmented PUD formulations; format: physicochemical; settings: 1 month at 50° C., FIG. 5
From the text: as §1
Dispersions and emulsions tend to aggregate polyurethane particles during storage. One way to determine the stability of a polyurethane dispersion is to measure viscosity of the polyurethane dispersion over time. Viscosity is a measure of a solvent's resistance to gradual deformation by shear stress or tensile stress. […] The storage stability of the dispersions was evaluated based on variations between viscosity measurements performed on paints shortly after their preparation and after their storage for either one month at room temperature or one month at 50° C.

Compound	Gloss 20° [1]	Gloss 60° [1]	Gloss 85° [1]	MFFT [2]	Wt. Loss [3]	Loss of thickness after 200 wet-scrub cycles [3]	Persoz Hardness ([5]; 1 Day, in s)	Persoz Hardness ([5]; 7 Days, in s)	Persoz Hardness ([5]; 14 Days, in s)	Persoz Hardness ([5]; 21 Days, in s)	Open Time (Open time (ASTM D7488))	Color (Black background) L* [6]	Color (Black background) a* [6]	Color (Black background) b* [6]	Color (White background) L* [6]	Color (White background) a* [6]	Color (White background) b* [6]	Drying Time [7]	MFFT [8]	Solubility [9]	other results
CCCCN1CCCC1=O [NBP, N-butyl pyrrolidone, reference compound]	1.3 ± 0	2.8 ± 0	19.9 ± 0.2	−0.4±0.2 °C	4.142 g/m^2	2.213 µm	64.4 ± 3	127.0 ± 2	133.2 ± 5	136.6 ± 6	12 min	94.00	−1.04	2.20	95.01	−0.56	3.32	11.8 min	−0.7 °C	–	freeze-thaw stability: viscosity change (thickening of the paint) [4]: thickening of the paint samples after two cycles
COC(=O)CCCCC(=O)N(C)C [Ester amide, Hexanoic acid, 6-(dimethylamino)-6-oxo, methyl ester]	1.3 ± 0	3.3 ± 0	24.2 ± 0.2	–	7.920 g/m^2	4.040 µm	–	–	–	–	12 min	93.84	−1.05	2.03	94.98	−0.51	3.29	13.3 min	−0.6 °C	–	Solubility ([9]; DMPA dissolved in each solvent): 10.0 g/100 g of Solvent
CCN1CCCCCC1=O [N—EtCPL, N-ethyl caprolactam]	1.3 ± 0	3.0 ± 0	24.5 ± 0.5	−1.4±0.3 °C	3.767 g/m^2	1.797 µm	101.0 ± 1.0	102.0 ± 0.7	101.4 ± 2.6	104.0 ± 2.8	16 min	94.45	−0.92	2.46	95.04	−0.61	3.24	17.4 min	−2.4 °C	20.0 g/100 g of Solvent	freeze-thaw stability and film properties (comparison) ([4]; FIGS. 8 and 9): better freeze-thaw stability and film properties than NBP and ester alcohol; storage stability (viscosity buildup) [10]: low viscosity buildup; effect on color (yellowing) ([6]; pigmented PUD): no yellowing
N-butyl pyrrolidone [NBP, reference compound]	–	–	–	–	–	–	–	–	–	–	–	–	–	–	–	–	–	–	–	20.0 g/100 g of Solvent	–
CN1CCCC1=O [NMP, N-methyl pyrrolidone, reference compound]	1.3 ± 0	3.6 ± 0	30.7 ± 0.6	–	3.372 g/m^2	2.090 µm	94.2 ± 0.4	101.0 ± 2.4	100.6 ± 1.7	107.6 ± 1.3	12 min	94.55	−0.88	2.20	95.14	−0.52	3.02	19.8 min	−1.4 °C	54.0 g/100 g of Solvent	–
2, 2, 4-trimethyl-1,3-pentanediol monoisobutyrate [Ester alcohol, reference compound]	1.3 ± 0	3.0 ± 0	19.6 ± 0.3	–	7.747 g/m^2	4.439 µm	98.2 ± 3	118.0 ± 1	120.0 ± 2	122.0 ± 2	10 min	94.93	−0.87	2.30	95.6	−0.51	3.16	13.6 min	−0.4 °C	–	freeze-thaw stability: viscosity change (thickening of the paint) [4]: thickening of the paint samples after two cycles; Persoz Hardness ([5]; 28 Days): approximately 124.8±1; Persoz Hardness ([5]; 28 Days, in s): 124.8 ± 1
CCCCN1CCCCCC1=O [N—BuCPL, N-butyl caprolactam]	–	–	–	−1.3±0.3 °C	–	–	–	–	–	–	–	–	–	–	–	–	–	–	–	10.0 g/100 g of Solvent	–
